According to patent publication US8076487B2, “Pyridone derivative and herbicide” (Kumiai Chemical Industry Co., Ltd., priority 2006, dated 2011):

Tests used:
Assay type in all cases: in vivo
[1] = system: slender amaranth (Amaranthus viridis L.); test: Test Example 3: herbicidal effect by application to upland field (foliage treatment); details: 14th day after application; for herbicidal effect, Slender Amaranth: foliage treatment, 1,000 g active ingredient per 1 hectare, greenhouse; for herbicidal effect (index), Slender Amaranth: foliage treatment, plants grown two weeks, 1,000 g active ingredient per hectare
Procedure, shortened: (§1)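 Upland foliage test in greenhouse pots of field soil: seedlings sprayed at two weeks post-sowing with 1,000 g/ha active ingredient (wettable powder, 1,000 L water/ha). Scored 14 d after application.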

[2] = system: barnyardgrass (Echinochloa crus-galli (L.) P. Beauv. var. crus-galli); test: as above; details: 14th day after application; for herbicidal effect, Barnyardgrass: foliage treatment, 1,000 g active ingredient per 1 hectare, greenhouse; for herbicidal effect (index), Barnyardgrass: foliage treatment, plants grown two weeks, 1,000 g active ingredient per hectare
Procedure, shortened: as §1

[3] = system: green foxtail (Setaria viridis (L.) P. Beauv.); test: as above; details: 14th day after application; for herbicidal effect, Green Foxtail: foliage treatment, 1,000 g active ingredient per 1 hectare, greenhouse; for herbicidal effect (index), Green Foxtail: foliage treatment, plants grown two weeks, 1,000 g active ingredient per hectare
Procedure, shortened: as §1

[4] = system: velvetleaf (Abutilon theophrasti medicus); test: as above; details: 14th day after application; for herbicidal effect, Velvetleaf: foliage treatment, 1,000 g active ingredient per 1 hectare, greenhouse; for herbicidal effect (index), Velvetleaf: foliage treatment, plants grown two weeks, 1,000 g active ingredient per hectare
Procedure, shortened: as §1

[5] = system: slender amaranth (Amaranthus viridis L.); test: Test Example 2: herbicidal effect by soil application to upland field; details: soil surface spray, upland field soil, 1,000 g active ingredient per hectare, 21st day after application
Procedure, shortened: (§2)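 Soil-applied wettable powder, 1,000 g a.i./ha, sprayed after sowing onto covered field soil. Effect rated on a standard scale 21 days later in a greenhouse.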

[6] = system: barnyardgrass (Echinochloa crus-galli (L.) P. Beauv. var. crus-galli); test: as above; details: soil surface spray, upland field soil, 1,000 g active ingredient per hectare, 21st day after application
Procedure, shortened: as §2

[7] = system: green foxtail (Setaria viridis (L.) P. Beauv.); test: as above; details: soil surface spray, upland field soil, 1,000 g active ingredient per hectare, 21st day after application
Procedure, shortened: as §2

[8] = system: velvetleaf (Abutilon theophrasti medicus); test: as above; details: soil surface spray, upland field soil, 1,000 g active ingredient per hectare, 21st day after application
Procedure, shortened: as §2

[9] = system: early watergrass (Echinochloa oryzicola Vasing); test: Test Example 1: herbicidal effect by soil application to paddy field; details: paddy field soil application; active ingredient 1,000 g per 1 hectare; wettable powder added dropwise to water surface the day after sowing; examined on the 21st day after application
Procedure, shortened: (§3)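 Plants were sown in flooded (3 cm) paddy soil and evaluated for herbicidal effect 21 days after soil application in a greenhouse.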

[10] = system: Japanese bulrush (Scirpus juncoides Roxb.); test: as above; details: paddy field soil application; active ingredient 1,000 g per 1 hectare; wettable powder added dropwise to water surface the day after sowing; examined on the 21st day after application
Procedure, shortened: as §3

[11] = system: heartshape false pickerelweed (Monochoria vaginalis (Burm.f.) C.Presl); test: as above; details: paddy field soil application; active ingredient 1,000 g per 1 hectare; wettable powder added dropwise to water surface the day after sowing; examined on the 21st day after application
Procedure, shortened: as §3

`CON=CCn1c(C(F)(F)F)ccc(C(=O)C2=C(O)CCCC2=O)c1=O` [I-133] was tested, and the “herbicidal effect, Slender Amaranth” value [1] was 5 (90% or more of herbicidal effect and crop phytotoxicity), the “herbicidal effect, Barnyardgrass” value [2] was 5 (90% or more of herbicidal effect and crop phytotoxicity) and the “herbicidal effect, Green Foxtail” value [3] was 4 (70 to less than 90% of herbicidal effect and crop phytotoxicity). For the same molecule, the “herbicidal effect, Velvetleaf” value [4] was 5 (90% or more of herbicidal effect and crop phytotoxicity), the “herbicidal effect (index), Slender Amaranth” value [5] was 5 (90% or more of herbicidal effect and crop phytotoxicity) and the “herbicidal effect (index), Barnyardgrass” value [6] was 5 (90% or more of herbicidal effect and crop phytotoxicity). The “herbicidal effect (index), Green Foxtail” value [7] was 4 (70 to less than 90% of herbicidal effect and crop phytotoxicity), the “herbicidal effect (index), Velvetleaf” value [8] was 5 (90% or more of herbicidal effect and crop phytotoxicity) and the “herbicidal effect, Echinochloa oryzicola Vasing” value [9] was 5 (90% or more of herbicidal effect and crop phytotoxicity). The “herbicidal effect, Scirpus juncoides Roxb.” value [10] was 5 (90% or more of herbicidal effect and crop phytotoxicity) and the “herbicidal effect, Monochoria vaginalis (Burm. f.) C. Presl” value (“herbicidal effect, Monochoria vaginalis” for short) [11] was 5 (90% or more of herbicidal effect and crop phytotoxicity).
For `C[S+]([O-])CCCn1c(C(F)(F)F)ccc(C(=O)C2=C(O)CCCC2=O)c1=O` (stereo not shown) [I-70], the “herbicidal effect (index), Slender Amaranth” value [1] was 5 (90% or more of herbicidal effect and crop phytotoxicity), the “herbicidal effect (index), Barnyardgrass” value [2] was 5 (90% or more of herbicidal effect and crop phytotoxicity) and the “herbicidal effect (index), Green Foxtail” value [3] was 5 (90% or more of herbicidal effect and crop phytotoxicity). For the same molecule, the “herbicidal effect (index), Velvetleaf” value [4] was 5 (90% or more of herbicidal effect and crop phytotoxicity), the “herbicidal effect (index), Slender Amaranth” value [5] was 5 (90% or more of herbicidal effect and crop phytotoxicity) and the “herbicidal effect (index), Barnyardgrass” value [6] was 5 (90% or more of herbicidal effect and crop phytotoxicity). The “herbicidal effect (index), Green Foxtail” value [7] was 5 (90% or more of herbicidal effect and crop phytotoxicity), the “herbicidal effect (index), Velvetleaf” value [8] was 5 (90% or more of herbicidal effect and crop phytotoxicity) and the “herbicidal effect, Echinochloa oryzicola Vasing” value [9] was 5 (90% or more of herbicidal effect and crop phytotoxicity). The “herbicidal effect, Scirpus juncoides Roxb.” value [10] was 5 (90% or more of herbicidal effect and crop phytotoxicity) and the “herbicidal effect, Monochoria vaginalis” value [11] was 5 (90% or more of herbicidal effect and crop phytotoxicity).
With `CCCn1c(C(F)(F)F)c(C)cc(C(=O)C2=C(O)CCCC2=O)c1=O` [I-215] the “herbicidal effect, Slender Amaranth” value [1] was 5 (90% or more of herbicidal effect and crop phytotoxicity), the “herbicidal effect, Barnyardgrass” value [2] was 5 (90% or more of herbicidal effect and crop phytotoxicity) and the “herbicidal effect, Green Foxtail” value [3] was 5 (90% or more of herbicidal effect and crop phytotoxicity). The “herbicidal effect, Velvetleaf” value [4] was 5 (90% or more of herbicidal effect and crop phytotoxicity), the “herbicidal effect (index), Slender Amaranth” value [5] was 5 (90% or more of herbicidal effect and crop phytotoxicity) and the “herbicidal effect (index), Barnyardgrass” value [6] was 5 (90% or more of herbicidal effect and crop phytotoxicity). For the same molecule, the “herbicidal effect (index), Green Foxtail” value [7] was 5 (90% or more of herbicidal effect and crop phytotoxicity), the “herbicidal effect (index), Velvetleaf” value [8] was 5 (90% or more of herbicidal effect and crop phytotoxicity) and the “herbicidal effect, Echinochloa oryzicola Vasing” value [9] was 5 (90% or more of herbicidal effect and crop phytotoxicity). For the same molecule, the “herbicidal effect, Scirpus juncoides Roxb.” value [10] was 5 (90% or more of herbicidal effect and crop phytotoxicity) and the “herbicidal effect, Monochoria vaginalis” value [11] was 5 (90% or more of herbicidal effect and crop phytotoxicity).
With `CCn1c(C(F)(F)F)ccc(C(=O)C2=C(Sc3ccccc3)C3CCC(C3)C2=O)c1=O` (stereo not shown) [III-15] the “herbicidal effect, Slender Amaranth” value [1] was 5 (90% or more of herbicidal effect and crop phytotoxicity), the “herbicidal effect, Barnyardgrass” value [2] was 5 (90% or more of herbicidal effect and crop phytotoxicity) and the “herbicidal effect, Green Foxtail” value [3] was 5 (90% or more of herbicidal effect and crop phytotoxicity). For the same molecule, the “herbicidal effect, Velvetleaf” value [4] was 5 (90% or more of herbicidal effect and crop phytotoxicity), the “herbicidal effect (index), Slender Amaranth” value [5] was 5 (90% or more of herbicidal effect and crop phytotoxicity) and the “herbicidal effect (index), Barnyardgrass” value [6] was 5 (90% or more of herbicidal effect and crop phytotoxicity). For the same molecule, the “herbicidal effect (index), Green Foxtail” value [7] was 5 (90% or more of herbicidal effect and crop phytotoxicity), the “herbicidal effect (index), Velvetleaf” value [8] was 5 (90% or more of herbicidal effect and crop phytotoxicity) and the “herbicidal effect, Echinochloa oryzicola Vasing” value [9] was 5 (90% or more of herbicidal effect and crop phytotoxicity). The “herbicidal effect, Scirpus juncoides Roxb.” value [10] was 5 (90% or more of herbicidal effect and crop phytotoxicity) and the “herbicidal effect, Monochoria vaginalis” value [11] was 5 (90% or more of herbicidal effect and crop phytotoxicity).
For `Cn1c(C(F)F)ccc(C(=O)C2=C(O)CCCC2=O)c1=O` [I-221], the “herbicidal effect, Slender Amaranth” value [1] was 5 (90% or more of herbicidal effect and crop phytotoxicity), the “herbicidal effect, Barnyardgrass” value [2] was 5 (90% or more of herbicidal effect and crop phytotoxicity) and the “herbicidal effect, Green Foxtail” value [3] was 4 (70 to less than 90% of herbicidal effect and crop phytotoxicity). The “herbicidal effect, Velvetleaf” value [4] was 5 (90% or more of herbicidal effect and crop phytotoxicity), the “herbicidal effect (index), Slender Amaranth” value [5] was 5 (90% or more of herbicidal effect and crop phytotoxicity) and the “herbicidal effect (index), Barnyardgrass” value [6] was 5 (90% or more of herbicidal effect and crop phytotoxicity). The “herbicidal effect (index), Green Foxtail” value [7] was 3 (50 to less than 70% of herbicidal effect and crop phytotoxicity), the “herbicidal effect (index), Velvetleaf” value [8] was 5 (90% or more of herbicidal effect and crop phytotoxicity) and the “herbicidal effect, Echinochloa oryzicola Vasing” value [9] was 5 (90% or more of herbicidal effect and crop phytotoxicity). For the same molecule, the “herbicidal effect, Scirpus juncoides Roxb.” value [10] was 5 (90% or more of herbicidal effect and crop phytotoxicity) and the “herbicidal effect, Monochoria vaginalis” value [11] was 5 (90% or more of herbicidal effect and crop phytotoxicity).
With `O=C1CCCC(O)=C1C(=O)c1cc(Br)c(C(F)F)n(-c2ccccc2)c1=O` [I-224] the “herbicidal effect, Slender Amaranth” value [1] was 5 (90% or more of herbicidal effect and crop phytotoxicity), the “herbicidal effect, Barnyardgrass” value [2] was 5 (90% or more of herbicidal effect and crop phytotoxicity) and the “herbicidal effect, Green Foxtail” value [3] was 5 (90% or more of herbicidal effect and crop phytotoxicity). For the same molecule, the “herbicidal effect, Velvetleaf” value [4] was 5 (90% or more of herbicidal effect and crop phytotoxicity), the “herbicidal effect (index), Slender Amaranth” value [5] was 5 (90% or more of herbicidal effect and crop phytotoxicity) and the “herbicidal effect (index), Barnyardgrass” value [6] was 5 (90% or more of herbicidal effect and crop phytotoxicity). For the same molecule, the “herbicidal effect (index), Green Foxtail” value [7] was 5 (90% or more of herbicidal effect and crop phytotoxicity), the “herbicidal effect (index), Velvetleaf” value [8] was 5 (90% or more of herbicidal effect and crop phytotoxicity) and the “herbicidal effect, Echinochloa oryzicola Vasing” value [9] was 5 (90% or more of herbicidal effect and crop phytotoxicity). For the same molecule, the “herbicidal effect, Scirpus juncoides Roxb.” value [10] was 5 (90% or more of herbicidal effect and crop phytotoxicity) and the “herbicidal effect, Monochoria vaginalis” value [11] was 5 (90% or more of herbicidal effect and crop phytotoxicity).
For `O=C1CCCC(O)=C1C(=O)c1ccc(C(F)(F)F)n(-c2ccc(F)cc2)c1=O` [I-93], the “herbicidal effect (index), Slender Amaranth” value [1] was 5 (90% or more of herbicidal effect and crop phytotoxicity), the “herbicidal effect (index), Barnyardgrass” value [2] was 5 (90% or more of herbicidal effect and crop phytotoxicity) and the “herbicidal effect (index), Green Foxtail” value [3] was 5 (90% or more of herbicidal effect and crop phytotoxicity). The “herbicidal effect (index), Velvetleaf” value [4] was 5 (90% or more of herbicidal effect and crop phytotoxicity), the “herbicidal effect (index), Slender Amaranth” value [5] was 5 (90% or more of herbicidal effect and crop phytotoxicity) and the “herbicidal effect (index), Barnyardgrass” value [6] was 5 (90% or more of herbicidal effect and crop phytotoxicity). The “herbicidal effect (index), Green Foxtail” value [7] was 5 (90% or more of herbicidal effect and crop phytotoxicity), the “herbicidal effect (index), Velvetleaf” value [8] was 5 (90% or more of herbicidal effect and crop phytotoxicity) and the “herbicidal effect, Echinochloa oryzicola Vasing” value [9] was 5 (90% or more of herbicidal effect and crop phytotoxicity). The “herbicidal effect, Scirpus juncoides Roxb.” value [10] was 5 (90% or more of herbicidal effect and crop phytotoxicity) and the “herbicidal effect, Monochoria vaginalis” value [11] was 5 (90% or more of herbicidal effect and crop phytotoxicity).
`O=C1CCCC(O)=C1C(=O)c1ccc(C(F)(F)F)n(CSC2CC2)c1=O` [I-52] was tested, and the “herbicidal effect (index), Slender Amaranth” value [1] was 5 (90% or more of herbicidal effect and crop phytotoxicity), the “herbicidal effect (index), Barnyardgrass” value [2] was 5 (90% or more of herbicidal effect and crop phytotoxicity) and the “herbicidal effect (index), Green Foxtail” value [3] was 5 (90% or more of herbicidal effect and crop phytotoxicity). The “herbicidal effect (index), Velvetleaf” value [4] was 5 (90% or more of herbicidal effect and crop phytotoxicity), the “herbicidal effect (index), Slender Amaranth” value [5] was 5 (90% or more of herbicidal effect and crop phytotoxicity) and the “herbicidal effect (index), Barnyardgrass” value [6] was 5 (90% or more of herbicidal effect and crop phytotoxicity). The “herbicidal effect (index), Green Foxtail” value [7] was 5 (90% or more of herbicidal effect and crop phytotoxicity), the “herbicidal effect (index), Velvetleaf” value [8] was 5 (90% or more of herbicidal effect and crop phytotoxicity) and the “herbicidal effect, Echinochloa oryzicola Vasing” value [9] was 5 (90% or more of herbicidal effect and crop phytotoxicity). The “herbicidal effect, Scirpus juncoides Roxb.” value [10] was 5 (90% or more of herbicidal effect and crop phytotoxicity) and the “herbicidal effect, Monochoria vaginalis” value [11] was 5 (90% or more of herbicidal effect and crop phytotoxicity).
